This passage reports IC50 results from article PMC5863483, “Low HLA binding of diabetes-associated CD8+ T-cell epitopes is increased by post translational modifications” (BMC Immunology, 2018).

*1 amine or outer side, *2 acyl side, *3 side chain or, on linkers, in order; H or OH if unused. Where a SMILES comes first, the peptide text is derived from it. Where no end group is shown, it is not given here. [ ]: non-standard residue; d: D form. γGlu = O=C(O)[C@H](CCC(=O)[*:2])N[*:1]; βAsp = O=C(O)[C@H](CC(=O)[*:2])N[*:1]; Cya = N[C@@H](CS(=O)(=O)O)C(=O)O; Cit = NC(=O)NCCC[C@H](N)C(=O)O

In one test the target is HLA-A*02:01 (Homo sapiens, UniProt P04439, D140Y/D185E/D98H/E176V/E277Q/G131W/G231S/I119V/I121R/I166T/I218V/L300P/L318F/N151K/N90K/P208A/P217A/Q86G/Q94H/R138H/R169H/T345S). Put plainly: HLA-peptide competition binding assay, A*02:01.
Settings: not given
`C[C@@H](O)[C@H](NC(=O)[C@H](CCCCN)NC(=O)[C@@H]1CCCN1C(=O)[C@@H](NC(=O)[C@H](Cc1ccc(O)cc1)NC(=O)[C@H](Cc1ccccc1)NC(=O)[C@H](Cc1ccccc1)NC(=O)CNC(=O)[C@@H](N)CCCNC(N)=O)[C@@H](C)O)C(=O)O`: the IC50 was found to be 27300 nM.
Still for that read-out and setting: with LVEALYLVC the figure was 11800 nM; with SHLVEALYLV [reference compound], 2150 nM; with VAANIVLTV [reference compound], 320 nM.

Staying with this test, now noted: post-translationally modified insulin peptide; competition binding assay; a dash indicates IC50 >40,000 nM; read-out: A*02:01 binding (IC50 nM) Modified.
Consider `CC(C)C[C@H](NC(=O)[C@H](CO)NC(=O)CNC(=O)[C@H](CCC(=O)O)NC(=O)[C@@H](N)CC(C)C)C(=O)N[C@@H](CCC(N)=O)C(=O)N[C@@H](CCCCN)C(=O)N[C@@H](CCCNC(N)=O)C(=O)NCC(=O)O` (H-LEGSLQK[Cit]G-OH; N-terminus and C-terminus assumed), for which the IC50 was > 40000 nM.
The same measure, in the same setting: under `CC[C@H](C)[C@H](NC(=O)CNC(=O)[C@H](CCCNC(N)=O)NC(=O)[C@H](CCCCN)NC(=O)[C@H](CCC(N)=O)NC(=O)[C@H](CC(C)C)NC(=O)[C@@H](N)CO)C(=O)N[C@H](C(=O)N[C@@H](CCC(=O)O)C(=O)N[C@@H](CCC(N)=O)C(=O)O)C(C)C` (H-SLQK[Cit]GIVEQ-OH; N-terminus and C-terminus assumed) stands > 40000 nM; under `CC(C)C[C@H](NC(=O)[C@H](Cc1c[nH]cn1)NC(=O)[C@H](CO)NC(=O)CNC(=O)[C@H](CS(=O)(=O)O)NC(=O)[C@H](CC(C)C)NC(=O)[C@H](Cc1c[nH]cn1)NC(=O)[C@H](CCC(N)=O)NC(=O)[C@@H](N)CC(N)=O)C(=O)O` [NQHLBGSHL] (H-NQHL[Cya]GSHL-OH; N-terminus and C-terminus assumed), > 40000 nM.
As for VDEHLCGSH, the IC50 was > 40000 nM.
Still for that read-out and setting: with `CC(C)[C@H](N)C(=O)N[C@@H](CS(=O)(=O)O)C(=O)NCC(=O)N[C@@H](CCC(=O)O)C(=O)N[C@@H](CCCNC(=N)N)C(=O)NCC(=O)N[C@@H](Cc1ccc(O)cc1)C(=O)N[C@@H](Cc1ccc(O)cc1)C(=O)N[C@@H](Cc1ccc(O)cc1)C(=O)N[C@H](C(=O)O)[C@@H](C)O` [VBGERGYYYT] (H-V[Cya]GERGYYYT-OH; N-terminus and C-terminus assumed) the figure was > 40000 nM.
Regarding `CC(C)C[C@H](NC(=O)[C@H](Cc1c[nH]cn1)NC(=O)[C@H](CCC(N)=O)NC(=O)[C@H](CC(N)=O)NC(=O)[C@@H](N)C(C)C)C(=O)N[C@@H](CS(=O)(=O)O)C(=O)NCC(=O)N[C@@H](CO)C(=O)N[C@@H](Cc1c[nH]cn1)C(=O)O` [VNQHLBGSH] (H-VNQHL[Cya]GSH-OH; N-terminus and C-terminus assumed), the IC50 is > 40000 nM.
Take VCGERGYFYT: the IC50 was > 40000 nM.
Still for that read-out and setting: with FVDEHLCGSH the figure was > 40000 nM.
On the same count and under the same terms, under `CC(C)C[C@H](NC(=O)[C@H](CC(=O)O)NC(=O)[C@H](CCC(=O)O)NC(=O)[C@H](C)NC(=O)[C@H](CCC(=O)O)NC(=O)[C@H](CCCNC(N)=O)NC(=O)[C@H](CCCNC(N)=O)NC(=O)[C@@H](NC(=O)[C@@H](N)CCCCN)[C@@H](C)O)C(=O)O` (H-KT[Cit][Cit]EAEDL-OH; N-terminus and C-terminus assumed) stands > 40000 nM; under `CC[C@H](C)[C@H](NC(=O)CNC(=O)[C@H](CCCNC(N)=O)NC(=O)[C@H](CCCCN)NC(=O)[C@H](CCC(N)=O)NC(=O)[C@H](CC(C)C)NC(=O)[C@H](CO)NC(=O)CNC(=O)[C@@H](N)CCC(=O)O)C(=O)N[C@H](C(=O)O)C(C)C` (H-EGSLQK[Cit]GIV-OH; N-terminus and C-terminus assumed), > 40000 nM.
On the same count and under the same terms, with `C[C@H](NC(=O)[C@H](CCC(=O)O)NC(=O)[C@H](CCCNC(N)=O)NC(=O)[C@H](CCCNC(N)=O)NC(=O)[C@@H](NC(=O)[C@H](CCCCN)NC(=O)[C@@H]1CCCN1C(=O)[C@@H](NC(=O)[C@H](Cc1ccc(O)cc1)NC(=O)[C@@H](N)Cc1ccccc1)[C@@H](C)O)[C@@H](C)O)C(=O)O` (H-FYTPKT[Cit][Cit]EA-OH; N-terminus and C-terminus assumed) the figure was > 40000 nM; with `C[C@@H](O)[C@H](NC(=O)[C@H](Cc1ccc(O)cc1)NC(=O)[C@H](Cc1ccccc1)NC(=O)[C@H](Cc1ccccc1)NC(=O)CNC(=O)[C@H](CCCNC(N)=O)NC(=O)[C@H](CCC(=O)O)NC(=O)CNC(=O)[C@@H](N)CS)C(=O)O` (H-CGE[Cit]GFFYT-OH; N-terminus and C-terminus assumed), > 40000 nM.
On to `CC(C)C[C@H](NC(=O)[C@H](Cc1c[nH]cn1)NC(=O)CC[C@H](NC(=O)C[C@H](NC(=O)[C@@H](N)C(C)C)C(=O)O)C(=O)O)C(=O)N[C@@H](CS)C(=O)NCC(=O)N[C@@H](CO)C(=O)N[C@@H](Cc1c[nH]cn1)C(=O)O` [VOZHLCGSH] (H-V[βAsp][γGlu]HLCGSH-OH; N-terminus and C-terminus assumed), for which the IC50 is > 40000 nM.

The same test, now with this note: post-translationally modified insulin-derived peptide; radiolabeled ligand competition, purified MHC, two-day incubation, three or more independent experiments; read-out: A*02:01 binding, Modified.
For EHLCGSHLV, the IC50 was 7240 nM.

The test is the same for the next values; noted with them: read-out: A*02:01 binding (IC50 nM) Modified.
As to `CC(C)C[C@H](NC(=O)[C@H](Cc1ccc(O)cc1)NC(=O)[C@@H](N)CC(C)C)C(=O)N[C@H](C(=O)N[C@@H](CS(=O)(=O)O)C(=O)NCC(=O)N[C@@H](CCC(=O)O)C(=O)N[C@@H](CCCNC(=N)N)C(=O)NCC(=O)N[C@@H](Cc1ccc(O)cc1)C(=O)O)C(C)C` [LYLVBGERGY] (H-LYLV[Cya]GERGY-OH), the IC50 was 35500 nM.
Still for that read-out and setting: under `C[C@@H](O)[C@H](NC(=O)[C@H](Cc1ccc(O)cc1)NC(=O)[C@H](Cc1ccccc1)NC(=O)[C@H](Cc1ccccc1)NC(=O)CNC(=O)[C@H](CCCNC(N)=O)NC(=O)[C@@H](N)CCC(=O)O)C(=O)N1CCC[C@H]1C(=O)N[C@@H](CCCCN)C(=O)O` (H-E[Cit]GFFYTPK-OH) stands 38100 nM.

The test is the same for the next values; noted with them: read-out: A*02:01 binding (IC50 nM) WT.
REAEDLQVGQ: the IC50 is 23700 nM.
In the case of GSLQKRGIV, the IC50 worked out at 32700 nM.

The test is the same for the next values; noted with them: read-out: IC50 nM, target assay A*02:01.
In the case of YLLLRVLNI [reference compound], the IC50 was 57 nM.
Regarding VLHELFGMDI [reference compound], the IC50 worked out at 287 nM.
Same read-out and setting: with SMPQGTFPV [reference compound] the figure was 631 nM; with STVASWLGPV [reference compound], 9230 nM; with RLLPLWAALPL [reference compound], 5.4 nM.
As for KVLHELFGMDI [reference compound], the IC50 stood at 11 nM.
Take RLQREWHTL [reference compound]: the IC50 is 1230 nM.
On the same count and under the same terms, under GVFIQVYEV [reference compound] stands 460 nM; under LLLLDVAPL [reference compound], 10 nM.
As to VLNSLASLL [reference compound], the IC50 came to 4970 nM.
Same read-out and setting: with LLPPLLEHL [reference compound] the figure was 444 nM; with GLLQVHHSCPL [reference compound], 5.8 nM.

The same test, now with this note: unmodified (WT) insulin peptide; competition binding assay; a dash indicates IC50 >40,000 nM; read-out: A*02:01 binding (IC50 nM) WT.
Consider `C[C@@H](O)[C@H](NC(=O)[C@H](CCCCN)NC(=O)[C@@H]1CCCN1C(=O)[C@@H](NC(=O)[C@H](Cc1ccc(O)cc1)NC(=O)[C@H](Cc1ccccc1)NC(=O)[C@H](Cc1ccccc1)NC(=O)CN)[C@@H](C)O)C(=O)N[C@@H](CCCNC(=N)N)C(=O)N[C@@H](CCCNC(=N)N)C(=O)O`, for which the IC50 is > 40000 nM.
Same read-out and setting: with LQKRGIVEQ the figure was > 40000 nM; with LEGSLQKRGI, > 40000 nM.
The same measure, in the same setting: under PKTRREAEDL stands > 40000 nM; under RREAEDLQVG, > 40000 nM.
